Reference: the supplement of paper PMC8149375

Key:
Settings in all cases: treatment: drug + dasatinib (fixed dose, not stated); 5 days
SN12C [1] = test: GI50 of drug in presence of dasatinib; higher = less potent
Description: (§1)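 Primary HTS combination arm: 8 RCC cell lines treated with 8 doses (up to 10 uM) of each library drug plus a fixed dose of dasatinib (dose not stated) for 5 days; viability read by CellTiter-Glo and normalised to DMSO. GI50 was fitted with XLfit, AUC is the area under the dose-response curve, and minimum viability is the lowest fraction of DMSO viability across doses.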

UO-31 [2] = test: as above
Description: as §1

ACHN [3] = test: as above
Description: as §1

769-P [4] = test: as above
Description: as §1

TK-10 [5] = test: as above
Description: as §1

CAKI-1 [6] = test: as above
Description: as §1

A498 [7] = test: as above
Description: as §1

786-O [8] = test: as above
Description: as §1

SN12C [9] = test: AUC of dose-response viability curve, drug + dasatinib, normalised to DMSO (arbitrary (AUC of normalised viability)); higher = less growth inhibition
Description: as §1

UO-31 [10] = test: as above
Description: as §1

ACHN [11] = test: as above
Description: as §1

769-P [12] = test: as above
Description: as §1

TK-10 [13] = test: as above
Description: as §1

CAKI-1 [14] = test: as above
Description: as §1

A498 [15] = test: as above
Description: as §1

786-O [16] = test: as above
Description: as §1

SN12C [17] = test: minimum viability across doses, drug + dasatinib, relative to DMSO (fraction); higher = less growth inhibition
Description: as §1

UO-31 [18] = test: as above
Description: as §1

ACHN [19] = test: as above
Description: as §1

769-P [20] = test: as above
Description: as §1

TK-10 [21] = test: as above
Description: as §1

CAKI-1 [22] = test: as above
Description: as §1

A498 [23] = test: as above
Description: as §1

786-O [24] = test: as above
Description: as §1

| SMILES | GI50 of drug (SN12C [1]) | GI50 of drug (UO-31 [2]) | GI50 of drug (ACHN [3]) | GI50 of drug (769-P [4]) | GI50 of drug (TK-10 [5]) | GI50 of drug (CAKI-1 [6]) | GI50 of drug (A498 [7]) | GI50 of drug (786-O [8]) | AUC of dose-response viability curve (SN12C [9]) | AUC of dose-response viability curve (UO-31 [10]) | AUC of dose-response viability curve (ACHN [11]) | AUC of dose-response viability curve (769-P [12]) | AUC of dose-response viability curve (TK-10 [13]) | AUC of dose-response viability curve (CAKI-1 [14]) | AUC of dose-response viability curve (A498 [15]) | AUC of dose-response viability curve (786-O [16]) | minimum viability across doses (SN12C [17]) | minimum viability across doses (UO-31 [18]) | minimum viability across doses (ACHN [19]) | minimum viability across doses (769-P [20]) | minimum viability across doses (TK-10 [21]) | minimum viability across doses (CAKI-1 [22]) | minimum viability across doses (A498 [23]) | minimum viability across doses (786-O [24]) |
| --- | --- | --- | --- | --- | --- | --- | --- | --- | --- | --- | --- | --- | --- | --- | --- | --- | --- | --- | --- | --- | --- | --- | --- | --- |
| Cc1cc2c(F)c(Oc3ncnn4cc(OC[C@@H](C)O)c(C)c34)ccc2[nH]1 + Cc1nc(Nc2ncc(C(=O)Nc3c(C)cccc3Cl)s2)cc(N2CCN(CCO)CC2)n1 [dasatinib] | > 10 µM | > 10 µM | 1.04 µM | > 10 µM | > 10 µM | 6.47 µM | > 10 µM | > 10 µM | 2.39 | 3.43 | 1.8 | 2.59 | 2.68 | 2.3 | 3.38 | 2.65 | 0.621 | 0.528 | 0.343 | 0.682 | 0.693 | 0.179 | 0.789 | 0.656 |
| Cc1cc2c(F)c(Oc3ncnn4cc(OC[C@@H](C)OC(=O)[C@H](C)N)c(C)c34)ccc2[nH]1 + Cc1nc(Nc2ncc(C(=O)Nc3c(C)cccc3Cl)s2)cc(N2CCN(CCO)CC2)n1 [dasatinib] | > 10 µM | 9.86 µM | 1.05 µM | > 10 µM | > 10 µM | 7.6 µM | > 10 µM | > 10 µM | 2.47 | 3.27 | 1.89 | 2.41 | 2.69 | 2.59 | 3.16 | 2.48 | 0.605 | 0.457 | 0.316 | 0.617 | 0.674 | 0.431 | 0.733 | 0.504 |
| O=C(NOCC1CC1)c1ccc(F)c(F)c1Nc1ccc(I)cc1Cl + Cc1nc(Nc2ncc(C(=O)Nc3c(C)cccc3Cl)s2)cc(N2CCN(CCO)CC2)n1 [dasatinib] | 1.52 µM | 2.61 µM | 0.342 µM | 1.78 µM | 4.6 µM | 1.48 µM | 3.19 µM | 4.46 µM | 2.07 | 2.72 | 1.8 | 2.12 | 2.4 | 2.04 | 2.51 | 2.46 | 0.298 | 0.174 | 0.224 | 0.197 | 0.367 | 0.13 | 0.306 | 0.431 |
| Nc1nc(NCCNc2ncc(-n3ccnc3)c(-c3ccc(Cl)cc3Cl)n2)ccc1[N+](=O)[O-] + Cc1nc(Nc2ncc(C(=O)Nc3c(C)cccc3Cl)s2)cc(N2CCN(CCO)CC2)n1 [dasatinib] | 7.55 µM | 1.6 µM | 1.83 µM | 1.54 µM | 1.59 µM | 1.23 µM | 9.9 µM | 0.552 µM | 2.28 | 3.5 | 1.88 | 2.13 | 2.25 | 2 | 3.68 | 1.93 | 0.268 | 0.0119 | 0.0281 | 0.0308 | 0.0534 | 0.0567 | 0.474 | 0.00601 |
| COCCOc1ccc2c(c1)ncn2-c1ccc2cccc(N3CCC(N)CC3)c2n1 + Cc1nc(Nc2ncc(C(=O)Nc3c(C)cccc3Cl)s2)cc(N2CCN(CCO)CC2)n1 [dasatinib] | 1.69 µM | 2.91 µM | 0.0854 µM | 1.88 µM | 1.81 µM | 0.471 µM | 3.2 µM | 0.683 µM | 2.36 | 3.4 | 1.73 | 2.23 | 2.2 | 1.85 | 2.84 | 1.86 | 0.041 | 0.0088 | 0.0189 | 0.123 | 0.261 | 0.2 | 0.0463 | 0.00646 |
| Nc1nccc(Oc2ccc(NC(=O)c3c[nH]cc(-c4ccc(F)cc4)c3=O)cc2F)c1Cl + Cc1nc(Nc2ncc(C(=O)Nc3c(C)cccc3Cl)s2)cc(N2CCN(CCO)CC2)n1 [dasatinib] | > 10 µM | > 10 µM | 5.54 µM | 5.58 µM | > 10 µM | 4.03 µM | > 10 µM | 7.6 µM | 2.34 | 4.48 | 2.2 | 2.29 | 2.52 | 2.03 | 3.3 | 2.28 | 0.559 | 0.717 | 0.395 | 0.349 | 0.56 | 0.323 | 0.617 | 0.44 |
| NC1(Cc2ccc(Cl)cc2)CCN(c2ncnc3[nH]ccc23)CC1 + Cc1nc(Nc2ncc(C(=O)Nc3c(C)cccc3Cl)s2)cc(N2CCN(CCO)CC2)n1 [dasatinib] | 4.47 µM | 3.23 µM | 1.48 µM | 5.14 µM | 2.13 µM | 2.55 µM | 8.07 µM | 0.353 µM | 2.36 | 3.84 | 2.04 | 2.5 | 2.38 | 2.19 | 3.16 | 1.97 | 0.356 | 0.0115 | 0.165 | 0.323 | 0.207 | 0.202 | 0.401 | 0.00351 |
